How the values were obtained:
bone resorption [1] = assay: Inhibition of bone resorption (45Ca release from prelabeled rat embryonic limb bones stimulated with IL-1β); type: cell-based, rat (SD); conditions: 25 μg/ml, 45Ca prelabeled rat embryonic limb bone, 72 hours culture
Description: ^45 Ca prelabeled rat embryonic limbs for the measurement of bone resorption were prepared by the method of Raisz (J. Clin. Invest. 44, 103 (1965)). Briefly, 17th day pregnant SD rats were injected subcutaneously with 200 μCi of calcium-45 as calcium chloride. Two days later, the rats were killed, the embryos removed and washed with sterilized phosphated buffer solution (PBS). The forelimbs were dissected free of muscle and the cartilagious ends were cut off. The bone shaft was cultured with BGJb medium containing 20% bovine serum albumin (BSA).
The effect of each example compound of this invention on bone resorption was assessed by the method of Tsuda et al (J. Bone & Mineral Res. 1, 207 (1986)) with slight modification. Briefly, the trimmed bone was precultured for 24 hours at 37 ° C. and in an atmosphere of 5% CO2 in air on a millipore filter immersed in 0.6 ml of BGJb medium containing 20% BSA. 24-well plate was used for culture. The bone on the filter was then transferred to a new well filled with the medium containing the compounds of this invention with or without […] and cultured for 72 hours. 0.3 ml of the supernatant was collected and used to determine the ^45 Ca release from the bone. The bone was immersed in 0.3 ml of 1 N HCl for not less than 90 minutes, and 10 ml of ACS II scintillator was added so as to measure the radioactivity in a liquid scintillation counter. The activity of bone resorption was expressed as percent of ^45 Ca release to supernatant from labeled bone (sum of the radioactivity of the bone and the medium). One bone was cultured on one well and each experimental group consisted of 5 or 6 bones derived from fetus in one pregnant rat. The activity of bone resorption was determined by the formula.
U: ^45 Ca release without adding IL-1β
C: ^45 Ca release by adding IL-1β
T: ^45 Ca release by adding IL-1β and example compound

bone resorption [2] = conditions: It has been reported; cited from earlier work

SMILES	inhibition at 25 µg/mL (bone resorption [1]) [%]	inhibitory effect on bone resorption (in words) (bone resorption [2])
O=C(O)c1cc(Cl)cc2c1NC(c1ccccc1)CC2 (stereo not shown) [Compound 1, 6-Chloro-2-phenyl-1,2,3,4-tetrahydroquinoline-8-carboxylic acid]	74	
O=C(O)c1cccc2c1NC(c1ccccc1)CC2 (stereo not shown) [Compound 2]	113	
O=C(O)c1cc([N+](=O)[O-])cc2c1NCCC2 [Compound 3]	100	
O=C(O)c1cc(Cl)cc2c1NCCC2 [Compound 4]	76	
O=C(O)c1cccc2c1NCC(c1ccccc1)C2 (stereo not shown) [Compound 5]	103	
O=C(O)c1cccc2c1NC(c1ccc(O)cc1)CC2 (stereo not shown) [Compound 6]	70	
Cc1ccc(S(=O)(=O)Nc2cc3c(c(C(=O)O)c2)NC(c2ccccc2)CC3)cc1 (stereo not shown) [Compound 7, 2-Phenyl-6-p-toluenesulfonylamino-1,2,3,4-tetrahydroquinoline-8-carboxylic acid]	80	
CC(C)Oc1ccc(C2CCc3cccc(C(=O)O)c3N2)cc1 (stereo not shown) [Compound 8, 2-(4-Isopropoxyphenyl)-1,2,3,4-tetrahydroquinoline-8-carboxylic acid]	92	
CC(C)Oc1ccc2c(=O)c(-c3ccccc3)coc2c1 [Ipriflavone, 7-isopropoxyisoflavone, reference compound]	58	have inhibitory effect on bone resorption
